Results reported in US9586896B2, “Nitroxyl donors with improved therapeutic index” (Cardioxyl Pharmaceuticals, Inc., priority 2013, dated 2017).
Like-named read-outs stand apart in the source and are kept apart here.

Assays:
[1] = In vitro stability (half-life) in human plasma; type: in vitro ADME; conditions: male, pH 7.4, human plasma pH 7.4, anticoagulant, 37° C., read-out: T1/2 (minutes) Human
Protocol: (§1) Compound (1), compound (2), and CXL-1020 were tested for their stability in plasma. The assay system comprised (i) PBS, or plasma from rat, dog or human (at least 3 donors, male, pooled) at pH 7.4, and (ii) for tests conducted in plasma, an anticoagulant (sodium heparin or sodium citrate). Each test compound (5 μM) was incubated in PBS or plasma at 37° C. on a THERMOMIXER® with shaking Three samples (n=3) were taken at each of seven sampling time points: 0, 10, 30, 60, 90, 180 and 360 minutes. The samples were immediately combined with 3 volumes (i.e., 3 times the volume of PBS or plasma) of acetonitrile containing 1% formic acid and an internal standard to terminate the reaction. AB SCIEX API 3000 LC-MS/MS analysis of the test compounds was performed without a standard curve. Half-lives (T1/2) of the test compounds were determined from graphs of the percent remaining values using the peak area response ratio.

[2] = In vitro stability (half-life) in PBS pH 7.4; type: physicochemical; conditions: pH 7.4, aerated PBS pH 7.4, 37° C., read-out: T1/2 (minutes) PBS
Protocol: as §1

dogs = test: Microscopic pathology of the vasculature, canine implanted central catheter 72 hour model; type: in vivo, beagle dogs; conditions: edema, vascular/perivascular inflammation, hemorrhage, molar equivalent dose rates to CXL-1020
Protocol: Confirmation was obtained through evaluating the nitroxyl donors through detailed histopathology of the vasculature at the site of insertion of into the femoral vein (15 cm distal to the catheter tip), along the catheter track to the catheter tip, and past the tip downstream 20 cm.
A composite lab score was calculated from the sum of these findings scores. In FIG. 5, the cumulative histology composite lab score ranges from 0-2 (low severity) to 11-12 (high severity). […] The NOAEL values determined based on these microscopic pathology markers for a series of nitroxyl donors, expressed in molar equivalent dose rates (μg/kg/min) to CXL-1020, are provided in Table 8.

[3] = Solubility by visual assessment in pH 4 buffer; type: physicochemical; conditions: pH 4 citrate buffer, pH 4, aqueous buffer, thermodynamic from solid, shaken 5 minutes
Protocol: Initially, the solubilities of the compounds of formula (1) and formula (2) were measured by visual assessment at 100 μg/mL and 1000 μg/mL in a pH 4 buffer. The buffer was prepared by mixing 660 mL of Solution A (10.5023 g of citric acid dissolved in 1 L of water) and […] of Solution B (14.7010 g of sodium citrate tribasic dihydrate dissolved in 1 L of water). The pH of the buffer was 3.98 as measured by pH meter. Each compound was shaken for about 5 minutes in the pH 4 buffer solution prepared above at two concentration points (100 μg/mL and 1000 μg/mL) and the solubility was observed visually.

[4] = Nitroxyl production via N2O quantification (GC headspace analysis); type: physicochemical; conditions: PBS, 37° C.
Excerpt: Nitrous oxide (N2O) is produced via the dimerization and dehydration of HNO, and is the most common marker for nitroxyl production (Fukuto et al., Chem. Res. Toxicol. 18:790-801 (2005)). […] Using either nitrous oxide gas or Angeli's salt (AS) as a standard, the relative amounts of N2O released from compounds of the disclosure was examined via gas chromatography (GC) headspace analysis.
A procedure for determining the relative amounts of N2O released from compounds of the disclosure is as follows. GC was performed on an Agilent gas chromatograph equipped with a split injector (10:1 splitting), microelectron capture detector, and a HP-MOLSIV 30 m×0.32 mm×25 μm molecular sieve capillary column. Helium was used as the carrier (4 mL/min) gas and nitrogen was used as the make-up (20 mL/min) gas. The injector oven and the detector oven were kept at 200° C. and 325° C., respectively. All nitrous oxide analyses were performed with the column oven held at a constant temperature of 200° C.
All gas injections were made using an automated headspace analyzer. Vial pressurization was 15 psi. The analyzer's sample oven, sampling valve, and transfer line were kept at 40° C., 45° C., and 50° C., respectively. The oven stabilization, vial pressurization, loop fill, loop equilibration, and sample injection times were 1.00 min., 0.20 min., 0.20 min., 0.05 min., and 1.00 min., respectively.
All determinations used a batch of nominal 20 mL headspace vials with volumes pre-measured for sample uniformity (actual vial volume varied by ≦2.0% relative standard deviation (n=6)). The average vial volume for the batch was determined from six randomly-selected vials by calculating the weight difference between the capped and sealed empty (i.e., air-filled) vial and the capped and sealed deionized water-filled vial using the known density of deionized water, then averaging. Blanks were prepared by sealing and capping two vials then purging each for 20 seconds with a gentle argon stream. […]

[5] = In vitro stability (half-life) in rat plasma; type: in vitro ADME; conditions: male, rat plasma pH 7.4, anticoagulant, 37° C., read-out: T1/2 (minutes) Rat
Protocol: as §1

[6] = 100 μg/mL, read-out: Solubility (100 μg/mL)
[7] = 1000 μg/mL, read-out: Solubility (1000 μg/mL)

| SMILES | half-life at 5 μM [1] | half-life at 5 μM [2] | NOAEL (μg/kg/min), microscopic pathology markers (dogs) | solubility at 5 min [3, 6] | solubility at 5 min [3, 7] | Relative N2O Yield (90 minute incubation) [4] | Relative N2O Yield (360 minute incubation) ([4]; 360 minute incubation) | half-life at 5 μM [5] |
| --- | --- | --- | --- | --- | --- | --- | --- | --- |
| CS(=O)(=O)c1ccccc1S(=O)(=O)NO [CXL-1020, N-hydroxy-2-methanesulfonylbenzene-1-sulfonamide] | 2 min | 2 min | <3 μg/kg/min | – | – | – | – | – |
| CS(=O)(=O)c1cccc(S(=O)(=O)NO)c1 [(2), N-Hydroxy-3-methanesulfonylbenzene-1-sulfonamide] | ~37 min | ~50 min | ≧180 μg/kg/min | > 100 µg/mL | > 1000 µg/mL | 82% | 94% | 20 min |
| Cc1ccc(S(=O)(=O)NO)o1 [Compound (1), N-Hydroxy-5-methylfuran-2-sulfonamide] | ~65 min | ~68 min | ≧180 μg/kg/min | > 100 µg/mL | > 1000 µg/mL | 52% | – | 40 min |
